{
  "source": "patent US20080279812A1",
  "about": "“Disease Prevention and Vaccination Prior to Thymic Reactivation” (Norwood Immunology, Ltd., priority 2003, published 2008)",
  "key": {"sex steroid levels [1]": {"tested_on": "sex steroid levels", "test": "Sex steroid ablation therapy of a patient with an LHRH agonist (Example 6)", "assay_type": "in vivo, human", "settings": "single dose effective for 3 months", "method": "The patient was given sex steroid ablation therapy in the form of delivery of an LHRH agonist. This was given in the form of either Leucrin (depot injection; 22.5 mg) or Zoladex® (implant; 10.8 mg), either one as a single dose effective for 3 months. […] In some cases it is also necessary to deliver a suppresser of adrenal gland production of sex steroids. Cosudex® (5 mg/day or 50 mg/day) may also be given as one tablet per day for the duration of the sex steroid ablation therapy. Alternatively, the patient is given a GnRH antagonist, e.g., Cetrorelix or Abarelix, as a subcutaneous injection"}, "sex steroid levels [2]": {"tested_on": "sex steroid levels", "test": "Zoladex before autologous or allogeneic PBSCT (Example 31)", "assay_type": "in vivo, human", "settings": "implant from day -21 before PBSC infusion", "method": "Patients are male or female, aged 18 years or older that are due to undergo high-dose therapy (HDT) with PBSCT for malignant disease or BM failure. The 10.8 mg implant formulation (for men) of the Zoladex® is dispersed in a cylindrical rod of biodegradable and biocompatible polyglactins and is released continuously over 12 weeks following subcutaneous injection. The 3.6 mg implant (for women) is dispersed in a cylindrical rod of a biodegradable and biocompatible polyglactin and is released continuously over 28 days following subcutaneous injection. The implants are commercially supplied in a purpose-designed applicator with 14-16 gauge needles.\nReduction of sex steroids in the blood to minimal values may take several weeks. Consequently, 21 days prior to PBSC infusion (day 0), patients are injected with the sex steroid ablation therapy in the form of LHRH agonist Zoladex® (implant). For males, 10.8 mg goserelin as a single dose (effective for 3 months) are administered on day −21 with a further injection of 3.6 mg on day 63 (effective for 28 days). For females, 3.6 mg (effective for 28 days) are administered on day −21 and days 7, 35 and 63. […] Other doses may be deemed acceptable as determined readily by those skilled in the art. […]\nThymic function is determined by assessment of T cell subsets by flow cytometry, T cell responses in vitro, and production of TRECs."}, "[3]": {"tested_on": "pituitary LH, serum testosterone", "settings": "chronic administration, cited from earlier work"}},
  "data": [
    {"smiles": "CC(C)C[C@H](NC(=O)[C@@H](COC(C)(C)C)NC(=O)[C@H](Cc1ccc(O)cc1)NC(=O)[C@H](CO)NC(=O)[C@H](Cc1c[nH]c2ccccc12)NC(=O)[C@H](Cc1cnc[nH]1)NC(=O)[C@@H]1CCC(=O)N1)C(=O)N[C@@H](CCCNC(=N)N)C(=O)N1CCC[C@H]1C(=O)NNC(N)=O", "note": "[Zoladex®, goserelin acetate]", "values": [
      {"measurement": "reduction of sex steroid levels", "setting": "sex steroid levels [1]", "result": "effective in reducing sex steroid levels sufficiently to reactivate the thymus"},
      {"measurement": "reduction of sex steroid levels", "setting": "sex steroid levels [2]", "result": "effective in reducing sex steroid levels sufficiently to reactivate the thymus"},
      {"measurement": "time to sustained suppression of pituitary LH", "setting": "[3]; after initiation of therapy", "result": "≤ 3", "unit": "weeks"},
      {"measurement": "serum testosterone levels in males", "setting": "[3]", "result": "range normally seen in surgically castrated men"}
    ]}
  ]
}
